The target of one test is T1, human GluR1/2 receptors (Homo sapiens, UniProt P42261+P42262).
T1 construct: expressed in transfected cells; host or cells: HEK 293
Nature of the test: Patch-clamp of glutamate-induced membrane currents in HEK 293 cells expressing GluR1/2. Type of test: cell-based. The settings on record: recombinant human GluR1/2, 1 mM glutamate for 1 s at holding potential −80 mV. The protocol: Ionotropic glutamate receptors of the AMPA subtype are also essential for the excitatory neurotransmission. […] HEK 293 cells which expressed functionally recombinant human GluR1/2 receptors were electrophysiologically investigated by the Patch-Clamp method ([…]). The administration of 1 mM glutamate (for 1 s at a holding potential of −80 mV) induced membrane currents which were inhibited by the joint administration of ambroxol.

Test [1] concerns centrally expressed neuronal sodium channels. The following applies: neuronal sodium channel subtypes, Weiser and Wilson, Mol. Pharmacol. 62, 433-438, 2002, read-out: half-maximum inhibition of centrally expressed channels; cited from earlier work.

Results on one molecule are retold here after patent publication US20050014846A1, “Ambroxol for the treatment of tinnitus” (Boehringer Ingelheim International GmbH, priority 2003, published 2005).

T1 sequence (P42261 19-906): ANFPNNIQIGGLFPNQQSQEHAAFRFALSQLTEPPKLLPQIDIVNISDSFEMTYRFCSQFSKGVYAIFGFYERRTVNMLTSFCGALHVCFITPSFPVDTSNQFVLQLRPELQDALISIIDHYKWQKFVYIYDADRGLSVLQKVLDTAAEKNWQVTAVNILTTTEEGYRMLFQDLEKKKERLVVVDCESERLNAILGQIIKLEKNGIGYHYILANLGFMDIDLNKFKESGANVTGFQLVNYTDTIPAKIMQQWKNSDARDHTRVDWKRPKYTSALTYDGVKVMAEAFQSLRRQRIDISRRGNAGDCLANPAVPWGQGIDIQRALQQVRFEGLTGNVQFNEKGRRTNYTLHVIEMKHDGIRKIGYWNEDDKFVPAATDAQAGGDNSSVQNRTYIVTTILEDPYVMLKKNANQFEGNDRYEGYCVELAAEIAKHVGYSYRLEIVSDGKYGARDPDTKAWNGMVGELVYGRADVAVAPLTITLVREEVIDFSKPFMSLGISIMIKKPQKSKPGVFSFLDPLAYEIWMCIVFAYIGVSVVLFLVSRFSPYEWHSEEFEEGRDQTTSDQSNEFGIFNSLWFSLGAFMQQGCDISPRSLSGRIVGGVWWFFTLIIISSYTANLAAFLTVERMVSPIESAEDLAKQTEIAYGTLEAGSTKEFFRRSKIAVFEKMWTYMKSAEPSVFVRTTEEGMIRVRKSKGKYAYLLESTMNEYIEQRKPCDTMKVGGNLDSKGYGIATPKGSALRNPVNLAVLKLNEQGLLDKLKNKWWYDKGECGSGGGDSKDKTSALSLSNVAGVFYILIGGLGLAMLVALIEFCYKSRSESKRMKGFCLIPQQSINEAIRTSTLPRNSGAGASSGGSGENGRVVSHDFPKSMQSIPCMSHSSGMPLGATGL
T1 sequence (P42262 22-883 limits assumed): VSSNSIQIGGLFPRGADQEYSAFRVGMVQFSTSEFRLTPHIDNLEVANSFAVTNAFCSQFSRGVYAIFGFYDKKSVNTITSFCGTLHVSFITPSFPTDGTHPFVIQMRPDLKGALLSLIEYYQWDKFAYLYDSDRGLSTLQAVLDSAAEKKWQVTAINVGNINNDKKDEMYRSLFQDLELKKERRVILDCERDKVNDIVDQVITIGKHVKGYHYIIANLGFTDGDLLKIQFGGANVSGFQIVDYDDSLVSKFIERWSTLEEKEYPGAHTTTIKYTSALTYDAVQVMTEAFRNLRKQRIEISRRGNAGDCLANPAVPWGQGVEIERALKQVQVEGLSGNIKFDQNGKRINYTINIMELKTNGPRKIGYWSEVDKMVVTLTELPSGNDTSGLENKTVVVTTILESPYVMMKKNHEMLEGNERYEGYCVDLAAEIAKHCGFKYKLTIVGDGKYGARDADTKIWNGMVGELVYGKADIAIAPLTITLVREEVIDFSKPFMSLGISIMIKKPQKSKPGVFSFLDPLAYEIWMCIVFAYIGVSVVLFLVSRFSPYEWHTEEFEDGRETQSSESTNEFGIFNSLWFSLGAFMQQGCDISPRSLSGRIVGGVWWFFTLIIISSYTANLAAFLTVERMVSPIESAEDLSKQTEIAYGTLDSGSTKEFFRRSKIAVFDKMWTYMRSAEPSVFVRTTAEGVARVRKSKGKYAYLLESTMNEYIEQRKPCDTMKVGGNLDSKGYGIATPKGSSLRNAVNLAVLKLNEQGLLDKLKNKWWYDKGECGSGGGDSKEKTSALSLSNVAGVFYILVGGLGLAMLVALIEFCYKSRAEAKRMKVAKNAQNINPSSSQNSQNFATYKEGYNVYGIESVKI

On to `Nc1c(Br)cc(Br)cc1CN[C@H]1CC[C@H](O)CC1` [ambroxol, trans-4-(2-amino-3,5-dibromobenzylamino)cyclohexanol], for which the “concentrations inhibiting glutamate-induced membrane currents” value on human GluR1/2 receptors fell in the range of 30 to 1000 µM. Further, in test [1], the IC50 is 111 µM.
